Tests used:
Format in all cases: biochemical
DDR2 = target: T1, DDR2 (Homo sapiens, UniProt Q16832); test: Kinome profiling DDR2; details: read-out: Inhibitory activity DDR2; for inhibition at 0.1 µM: 100 nM
T1 sequence (Q16832 22-855): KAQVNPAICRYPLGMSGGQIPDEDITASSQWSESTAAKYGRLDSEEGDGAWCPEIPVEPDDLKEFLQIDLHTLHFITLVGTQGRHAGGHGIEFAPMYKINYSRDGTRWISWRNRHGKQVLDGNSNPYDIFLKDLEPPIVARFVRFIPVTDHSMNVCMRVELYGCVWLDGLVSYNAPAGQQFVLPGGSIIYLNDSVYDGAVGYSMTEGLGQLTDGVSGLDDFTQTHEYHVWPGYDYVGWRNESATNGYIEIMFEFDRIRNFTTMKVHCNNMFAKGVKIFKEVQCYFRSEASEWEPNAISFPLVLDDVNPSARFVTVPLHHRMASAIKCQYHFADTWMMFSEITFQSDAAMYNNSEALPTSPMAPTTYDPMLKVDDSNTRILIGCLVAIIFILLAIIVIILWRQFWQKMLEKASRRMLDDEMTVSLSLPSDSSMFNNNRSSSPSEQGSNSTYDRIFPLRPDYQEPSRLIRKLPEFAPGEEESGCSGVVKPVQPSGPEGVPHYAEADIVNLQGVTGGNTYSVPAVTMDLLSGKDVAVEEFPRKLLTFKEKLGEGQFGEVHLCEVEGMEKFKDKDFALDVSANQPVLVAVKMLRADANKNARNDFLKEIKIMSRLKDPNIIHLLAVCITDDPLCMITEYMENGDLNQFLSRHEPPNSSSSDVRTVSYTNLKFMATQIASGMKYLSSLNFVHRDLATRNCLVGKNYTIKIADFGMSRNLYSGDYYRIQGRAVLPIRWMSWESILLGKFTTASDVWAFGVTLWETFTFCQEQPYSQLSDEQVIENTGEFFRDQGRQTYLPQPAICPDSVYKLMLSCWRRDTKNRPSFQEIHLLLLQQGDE
Description: (§1) . The kinome-wide selectivity was determined following the methods previously reported by Mohedas et al., ACS Chem Biol 2013, 8, 1291-1302 and Sanvitale et al., PLoS One 2013, 8, e62721.

BLK = BLK (Homo sapiens, UniProt P51451); test: Kinome profiling BLK; details: read-out: Inhibitory activity BLK; for inhibition at 0.1 µM: 100 nM
Description: as §1

PRKD1 = target: T2, PRKD1 (Homo sapiens, UniProt Q15139); test: Kinome profiling PRKD1; details: read-out: Inhibitory activity PRKD1; for inhibition at 0.1 µM: 100 nM
T2 sequence (Q15139 1-912): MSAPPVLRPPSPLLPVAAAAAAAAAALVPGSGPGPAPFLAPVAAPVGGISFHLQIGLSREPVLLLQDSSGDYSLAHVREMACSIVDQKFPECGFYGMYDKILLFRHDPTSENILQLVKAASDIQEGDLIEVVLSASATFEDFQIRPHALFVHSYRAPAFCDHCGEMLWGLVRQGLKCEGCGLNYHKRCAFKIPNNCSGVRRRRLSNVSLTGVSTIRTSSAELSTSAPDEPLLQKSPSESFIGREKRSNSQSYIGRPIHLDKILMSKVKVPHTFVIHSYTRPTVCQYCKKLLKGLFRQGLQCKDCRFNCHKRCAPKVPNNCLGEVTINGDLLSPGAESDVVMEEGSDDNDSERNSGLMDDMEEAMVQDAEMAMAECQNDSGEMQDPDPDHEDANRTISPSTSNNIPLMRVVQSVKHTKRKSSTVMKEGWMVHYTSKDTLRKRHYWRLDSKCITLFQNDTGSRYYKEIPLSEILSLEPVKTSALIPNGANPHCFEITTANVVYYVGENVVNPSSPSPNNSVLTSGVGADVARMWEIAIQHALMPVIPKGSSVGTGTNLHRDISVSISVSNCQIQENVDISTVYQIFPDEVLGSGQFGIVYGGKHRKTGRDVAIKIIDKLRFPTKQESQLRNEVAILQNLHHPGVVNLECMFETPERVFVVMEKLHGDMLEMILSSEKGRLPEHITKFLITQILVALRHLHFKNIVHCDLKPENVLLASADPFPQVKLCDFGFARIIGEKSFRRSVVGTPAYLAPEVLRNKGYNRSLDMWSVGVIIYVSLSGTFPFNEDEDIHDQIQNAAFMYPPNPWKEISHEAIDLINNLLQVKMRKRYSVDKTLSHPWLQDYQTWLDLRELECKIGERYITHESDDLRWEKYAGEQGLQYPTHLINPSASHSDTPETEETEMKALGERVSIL
Description: as §1

RSK2 = RSK2 (Homo sapiens, UniProt P51812); test: Kinome profiling RSK2; details: read-out: Inhibitory activity RSK2; for inhibition at 0.1 µM: 100 nM
Description: as §1

PRKG2 = target: T3, PRKG2 (Homo sapiens, UniProt Q13237); test: Kinome profiling PRKG2; details: read-out: Inhibitory activity PRKG2; for inhibition at 0.1 µM: 100 nM
T3 sequence (Q13237 1-762): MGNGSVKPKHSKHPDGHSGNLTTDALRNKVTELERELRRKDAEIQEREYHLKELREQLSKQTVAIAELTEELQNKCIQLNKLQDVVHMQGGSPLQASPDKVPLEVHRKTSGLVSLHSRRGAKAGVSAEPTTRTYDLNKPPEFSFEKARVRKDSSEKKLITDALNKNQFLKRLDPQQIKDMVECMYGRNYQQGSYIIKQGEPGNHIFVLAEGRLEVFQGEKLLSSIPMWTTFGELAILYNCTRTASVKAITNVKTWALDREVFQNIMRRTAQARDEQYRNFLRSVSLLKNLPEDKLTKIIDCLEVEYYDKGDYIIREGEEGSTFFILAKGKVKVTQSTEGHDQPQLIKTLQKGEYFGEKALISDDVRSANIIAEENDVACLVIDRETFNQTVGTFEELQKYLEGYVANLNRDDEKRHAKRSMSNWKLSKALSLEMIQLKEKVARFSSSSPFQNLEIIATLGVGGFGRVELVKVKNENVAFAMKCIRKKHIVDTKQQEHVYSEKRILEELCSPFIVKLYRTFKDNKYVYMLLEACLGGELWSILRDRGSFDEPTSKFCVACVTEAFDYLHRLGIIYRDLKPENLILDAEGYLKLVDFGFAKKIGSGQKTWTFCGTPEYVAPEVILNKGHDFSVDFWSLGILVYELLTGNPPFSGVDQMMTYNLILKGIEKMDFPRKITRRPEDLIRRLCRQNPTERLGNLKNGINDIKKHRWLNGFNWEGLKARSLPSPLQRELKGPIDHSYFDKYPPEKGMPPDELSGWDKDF
Description: as §1

FGFR4 = FGFR4 (Homo sapiens, UniProt P22455); test: Kinome profiling FGFR4; details: read-out: Inhibitory activity FGFR4; for inhibition at 0.1 µM: 100 nM
Description: as §1

Sequence of BLK (P51451 whole entry): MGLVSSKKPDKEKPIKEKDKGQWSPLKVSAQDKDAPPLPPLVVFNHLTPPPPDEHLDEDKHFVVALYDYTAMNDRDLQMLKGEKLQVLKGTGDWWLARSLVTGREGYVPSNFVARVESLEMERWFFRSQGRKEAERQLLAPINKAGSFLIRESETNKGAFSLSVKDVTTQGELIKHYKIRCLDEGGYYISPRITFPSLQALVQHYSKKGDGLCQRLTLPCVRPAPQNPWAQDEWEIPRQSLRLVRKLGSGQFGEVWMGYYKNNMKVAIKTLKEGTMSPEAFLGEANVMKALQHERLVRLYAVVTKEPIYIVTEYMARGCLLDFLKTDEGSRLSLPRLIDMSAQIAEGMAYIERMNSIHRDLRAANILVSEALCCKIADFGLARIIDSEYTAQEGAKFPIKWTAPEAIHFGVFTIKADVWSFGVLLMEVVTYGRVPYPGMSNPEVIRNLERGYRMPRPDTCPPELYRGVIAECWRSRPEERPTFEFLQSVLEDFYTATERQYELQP
Sequence of RSK2 (P51812 whole entry): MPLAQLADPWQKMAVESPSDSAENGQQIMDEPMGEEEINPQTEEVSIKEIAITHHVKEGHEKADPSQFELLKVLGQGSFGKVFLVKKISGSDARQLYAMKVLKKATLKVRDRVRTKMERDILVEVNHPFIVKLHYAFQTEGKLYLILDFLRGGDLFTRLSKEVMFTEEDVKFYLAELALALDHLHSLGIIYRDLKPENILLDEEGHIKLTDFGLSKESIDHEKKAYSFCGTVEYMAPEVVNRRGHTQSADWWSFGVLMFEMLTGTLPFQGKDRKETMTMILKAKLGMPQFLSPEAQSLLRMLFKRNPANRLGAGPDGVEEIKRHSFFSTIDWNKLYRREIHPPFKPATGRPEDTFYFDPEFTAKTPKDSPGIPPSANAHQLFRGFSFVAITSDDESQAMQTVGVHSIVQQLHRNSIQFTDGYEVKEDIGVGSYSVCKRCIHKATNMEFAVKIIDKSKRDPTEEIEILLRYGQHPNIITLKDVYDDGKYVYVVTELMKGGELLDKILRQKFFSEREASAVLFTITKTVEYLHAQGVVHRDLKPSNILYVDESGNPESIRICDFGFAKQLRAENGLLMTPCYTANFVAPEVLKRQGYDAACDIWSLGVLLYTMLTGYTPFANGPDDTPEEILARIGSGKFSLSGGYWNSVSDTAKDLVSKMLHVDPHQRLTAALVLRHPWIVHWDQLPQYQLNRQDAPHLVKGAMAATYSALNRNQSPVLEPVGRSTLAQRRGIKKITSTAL
Sequence of FGFR4 (P22455 22-802): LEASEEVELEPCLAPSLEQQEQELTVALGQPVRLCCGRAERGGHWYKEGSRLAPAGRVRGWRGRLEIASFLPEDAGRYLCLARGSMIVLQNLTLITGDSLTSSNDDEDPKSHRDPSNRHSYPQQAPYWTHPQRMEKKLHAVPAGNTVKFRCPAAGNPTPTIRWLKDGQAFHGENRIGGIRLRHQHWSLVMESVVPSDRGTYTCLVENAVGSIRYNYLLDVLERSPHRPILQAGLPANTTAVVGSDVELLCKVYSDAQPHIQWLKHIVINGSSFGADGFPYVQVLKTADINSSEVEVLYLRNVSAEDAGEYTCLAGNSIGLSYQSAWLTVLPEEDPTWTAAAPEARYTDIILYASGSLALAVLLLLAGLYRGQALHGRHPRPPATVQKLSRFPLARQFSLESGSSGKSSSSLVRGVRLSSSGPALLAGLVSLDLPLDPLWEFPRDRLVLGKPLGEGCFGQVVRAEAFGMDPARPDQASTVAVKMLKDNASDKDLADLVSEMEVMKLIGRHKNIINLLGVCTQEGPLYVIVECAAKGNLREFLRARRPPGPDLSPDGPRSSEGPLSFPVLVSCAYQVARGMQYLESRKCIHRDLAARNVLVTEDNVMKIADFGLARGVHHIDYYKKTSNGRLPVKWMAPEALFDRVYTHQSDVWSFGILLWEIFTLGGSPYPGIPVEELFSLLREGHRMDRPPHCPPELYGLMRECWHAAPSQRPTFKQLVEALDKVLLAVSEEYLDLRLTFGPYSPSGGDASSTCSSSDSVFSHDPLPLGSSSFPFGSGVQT

| Structure (SMILES) | inhibition at 0.1 µM (DDR2) [%] | inhibition at 1 µM (DDR2) [%] | inhibition at 0.1 µM (BLK) [%] | inhibition at 1 µM (BLK) [%] | inhibition at 0.1 µM (PRKD1) [%] | inhibition at 1 µM (PRKD1) [%] | inhibition at 0.1 µM (RSK2) [%] | inhibition at 1 µM (RSK2) [%] | inhibition at 0.1 µM (PRKG2) [%] | inhibition at 1 µM (PRKG2) [%] | inhibition at 0.1 µM (FGFR4) [%] | inhibition at 1 µM (FGFR4) [%] |
| --- | --- | --- | --- | --- | --- | --- | --- | --- | --- | --- | --- | --- |
| COc1cc(-c2cc(-c3ccc(N4CCNCC4)cc3)cnc2C)cc(OC)c1OC [Compound 10, 1-(4-(6-methyl-5-(3,4,5-trimethoxyphenyl)pyridin-3-yl)phenyl)piperazine] | -1 | 20 | 1 | 12 | 4 | 23 | 1 | 1 | 0 | 4 | 1 | 2 |
| COc1cc(-c2cc(-c3ccc(N4CCNCC4)cc3)cnc2N)cc(OC)c1OC [Compound 15, 5-(4-(piperazin-1-yl)phenyl)-3-(3,4,5-trimethoxyphenyl)pyridin-2-amine] | 32 | 86 | 16 | 64 | 11 | 50 | 0 | 4 | 0 | 1 | 1 | 0 |

— patent publication US20170190705A1, “Compositions and Methods for Inhibiting BMP” (THE BRIGHAM AND WOMAN'S HOSPITAL, INC., priority 2014, published 2017)
